This note sets out measurements from patent US20240247080A1, “GLP1/GIP/NPY2 RECEPTOR TRIPLE AGONISTS” (Boehringer Ingelheim International GmbH, priority 2022, published 2024).

Like-named read-outs stand apart in the source and are kept apart here. Starred links: 1 amine or outer side, 2 acyl side, 3 side chain; linkers in the order of their positions; H or OH if unused. Positions of bridges follow the written chain, without caps; N, C: chain ends. Non-standard residues stand in square brackets, D forms with d. Groups on a side chain read outwards from the residue. Chains are numbered I, II in the order given. No end group written: not given here. *: point of attachment. C20 diacid = O=C(O)CCCCCCCCCCCCCCCCCCC(=O)*; C18 diacid = O=C(O)CCCCCCCCCCCCCCCCC(=O)*; γGlu = O=C(O)[C@H](CCC(=O)[*:2])N[*:1]; εLys = N[C@@H](CCCCN[*:1])C(=O)[*:2]; NMeQ = CN[C@@H](CCC(N)=O)C(=O)O; AEEA = NCCOCCOCC(=O)O; Aib = CC(C)(N)C(=O)O; Ahx = NCCCCCC(=O)O

One assay deals with T1, hGLP1R (Homo sapiens, UniProt P43220).
T1 construct: expressed in transfected cells; host or cells: HEK-293 cells carrying a CRE-luciferase reporter gene
Put plainly: hGLP1R CreLuc reporter gene assay in 0.5% and 100% plasma. Type of assay: cell-based. The note with it: CreLuc reporter gene assay. The source says:
(§1) Example 1: hGLPR/hGIPR/hNPY2R CreLuc Assay in 0.5% and 100% Plasma
(§2) CHO and HEK-293 recombinant cell lines express a luciferase reporter gene under control of the cAMP responsive element (CRE). As a second recombinant protein the GLP-1 and NPY2 receptors were expressed in the reporter gene HEK cells, and the GIP receptor was expressed in the reporter gene CHO cells, respectively. Stimulation of these recombinant cells with an agonist leads to an increase of intracellular cAMP levels. In the presence of cAMP, the transcription factor CRE binding protein (CREB) binds to the CRE and to the CREB binding protein (CBP), which leads to transcription of the luciferase reporter gene. Peptides upon serial-dilution in 100% DMSO were transferred into 384-well assay plates with 5 μl pre-dispensed assay buffer (1×HBSS, 20 mM HEPES, pH7.4 supplemented with 0.5% human plasma) using acoustic dispensing on a Labcyte ECHO. Cryo-preserved transgenic reporter gene cells were thawed in assay buffer. 20 μl (10.000 cells/well) were added to the plate with the peptides and incubated for 4 hours at 37° C. in a humidified incubator. Following incubation, assay plates are equilibrated to room temperature, followed by addition of 25 μl of Bright-GIo™ Luciferase reagent, incubation at room temperature for 10 minutes and analysis of luminescence (Envision Reader). Concentration response evaluation of compounds was performed with 8 concentrations of peptides (covering four decades). EC50 values were calculated by non-linear regression using sigmoid concentration-response with variable slope. The same assays were run in the presence of 100% plasma with no additional buffer constituents.

The next assay concerns the target T2, hGIPR (Homo sapiens, UniProt P48546).
T2 construct: expressed in transfected cells; host or cells: CHO cells carrying a CRE-luciferase reporter gene
T2 sequence (P48546 22-466): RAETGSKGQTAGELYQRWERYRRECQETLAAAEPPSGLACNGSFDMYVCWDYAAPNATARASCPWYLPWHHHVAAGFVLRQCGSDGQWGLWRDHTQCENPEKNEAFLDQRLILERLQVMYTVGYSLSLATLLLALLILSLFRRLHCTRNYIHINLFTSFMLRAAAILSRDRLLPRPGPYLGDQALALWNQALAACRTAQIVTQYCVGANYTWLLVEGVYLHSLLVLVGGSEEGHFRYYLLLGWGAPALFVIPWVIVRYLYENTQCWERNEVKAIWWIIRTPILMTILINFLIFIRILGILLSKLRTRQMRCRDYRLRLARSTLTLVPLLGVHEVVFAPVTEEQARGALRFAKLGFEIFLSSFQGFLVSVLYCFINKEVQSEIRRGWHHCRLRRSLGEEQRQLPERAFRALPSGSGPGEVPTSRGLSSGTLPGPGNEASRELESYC
Put plainly: hGIPR CreLuc reporter gene assay in 0.5% and 100% plasma. In kind it is cell-based. Conditions: CreLuc reporter gene assay.
From the text: as §1, §2

Where [1] appears, read: 0.5% human plasma, read-out: hGLP1R 0.5% hP.
The mark [2] stands for this setting: 0.5% human plasma, read-out: hGIPR 0.5% hP.
Setting [3] is: 100% human plasma, read-out: hGIPR 100% hP.

T1 sequence (P43220 24-463): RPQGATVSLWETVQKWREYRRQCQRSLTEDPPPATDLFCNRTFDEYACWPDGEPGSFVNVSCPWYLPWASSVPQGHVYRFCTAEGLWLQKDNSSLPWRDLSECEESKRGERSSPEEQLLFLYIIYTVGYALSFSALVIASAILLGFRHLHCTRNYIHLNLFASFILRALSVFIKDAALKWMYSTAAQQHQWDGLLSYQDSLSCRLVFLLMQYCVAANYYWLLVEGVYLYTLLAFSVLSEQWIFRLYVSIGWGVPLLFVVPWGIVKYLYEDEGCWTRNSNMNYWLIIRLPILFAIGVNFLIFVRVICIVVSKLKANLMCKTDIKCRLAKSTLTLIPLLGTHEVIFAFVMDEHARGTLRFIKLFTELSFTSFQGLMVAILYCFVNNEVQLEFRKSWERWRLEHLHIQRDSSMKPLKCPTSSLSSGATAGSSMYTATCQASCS

With “Y[Aib]EGTFTSDYSI[Aib]LEKQAQ[Aib]AFVQWLIK([AEEA-AEEA-γGlu-γGlu-γGlu-C18 diacid])GGPSEGASLRHYYNWLTRQRY-NH2 [Compound 266, Y-Aib-E-G-T-F-T-S-D-Y-S-I-Aib-L-E-K-Q-A-Q-Aib-A-F-V-Q-W-L-I-K(1,3)-GGPSEGASLRHYYNWLTRQRY-NH2.C18DA-gGlu-gGlu-gGlu-OEG-OEG(1,2)]”, the EC50 at hGLP1R (setting [1]) stood at 0.1 nM; on hGLP1R (100% human plasma, read-out: hGLP1R 100% hP), 2.21 nM; on hGIPR (setting [2]), 0.13 nM; on hGIPR (setting [3]), 0.65 nM.

In the case of “H-Y[Aib]EGTFTSDYSI[Aib]LEKQAQ[Aib]AFVQWLIK([Ahx-γGlu-γGlu-γGlu-γGlu-γGlu-C18 diacid])GGPEEGASLRHYYNWLTRQRY-NH2 [Compound 162, Y-Aib-E-G-T-F-T-S-D-Y-S-I-Aib-L-E-K-Q-A-Q-Aib-A-F-V-Q-W-L-I-K(1,3)-GGPEEGASLRHYYNWLTRQRY-NH2.C18DA-gGlu-gGlu-gGlu-gGlu-gGlu-AHX(1,2)]”, the EC50 at hGLP1R (setting [1]) is 0.2 nM; at hGIPR (setting [2]) it was 0.25 nM; at hGIPR (setting [3]), 1.61 nM.

“H-Y[Aib]EGTFTSDYSI[Aib]LEKQAQ[Aib]AFVQWLIK([εLys-γGlu-γGlu-γGlu-γGlu-γGlu-γGlu-C20 diacid])GGPSEGASLRHYYNWLTR[NMeQ]RY-NH2 [Compound 115, Y-Aib-E-G-T-F-T-S-D-Y-S-I-Aib-L-E-K-Q-A-Q-Aib-A-F-V-Q-W-L-I-K(1,3)-G-G-P-S-E-G-A-S-L-R-H-Y-Y-N-W-L-T-R-NMeQ-R-Y-NH2.C20DA-gGlu-gGlu-gGlu-gGlu-gGlu-gGlu-eLys(1,2)]”: the values for the EC50 at hGLP1R (setting [1]) and at hGIPR (setting [2]) were 0.12 nM and 0.51 nM, respectively.

As for “H-Y[Aib]EGTFTSDYSI[Aib]LEKQAQ[Aib]AFVQWLIK([εLys-γGlu-γGlu-γGlu-γGlu-γGlu-γGlu-C20 diacid])GGPESGASLRHYYNWLTRQRY-NH2 [Compound 37, Y-Aib-E-G-T-F-T-S-D-Y-S-I-Aib-L-E-K-Q-A-Q-Aib-A-F-V-Q-W-L-I-K(1,3)-GGPESGASLRHYYNWLTRQRY-NH2.C20DA-gGlu-gGlu-gGlu-gGlu-gGlu-gGlu-eLys(1,2)]”, the figures for the EC50 on hGLP1R (setting [1]), at hGIPR (setting [2]) and on hGIPR (setting [3]) were 0.11 nM, 0.24 nM and 1.44 nM, respectively.

With “H-Y[Aib]EGTFTSDYSI[Aib]LEKQAQ[Aib]AFVEWLIK([εLys-γGlu-γGlu-γGlu-γGlu-γGlu-γGlu-C20 diacid])GGPSSGASLRHYYNLLTRQRY-NH2 [Compound 195, Y-Aib-E-G-T-F-T-S-D-Y-S-I-Aib-L-E-K-Q-A-Q-Aib-A-F-V-E-W-L-I-K(1,3)-GGPSSGASLRHYYNLLTRQRY-NH2.C20DA-gGlu-gGlu-gGlu-gGlu-gGlu-gGlu-eLys(1,2)]”, the EC50 on hGLP1R (setting [1]) was determined as 0.13 nM; at hGIPR (setting [2]) it was 0.25 nM; at hGIPR (setting [3]) it was 1.42 nM.

For the substance “H-Y[Aib]EGTFTSDYSI[Aib]LEKQAQ[Aib]AFVQWLIK([εLys-γGlu-γGlu-γGlu-γGlu-γGlu-γGlu-C20 diacid])GGPRYYASLRHYYNWLTRQRY-NH2 [Compound 14, Y-Aib-E-G-T-F-T-S-D-Y-S-I-Aib-L-E-K-Q-A-Q-Aib-A-F-V-Q-W-L-I-K(1,3)-GGPRYYASLRHYYNWLTRQRY-NH2.C20DA-gGlu-gGlu-gGlu-gGlu-gGlu-gGlu-eLys(1,2)]”, the EC50 on hGLP1R (setting [1]) amounted to 0.4 nM; on hGIPR (setting [2]) it was 0.71 nM.

For the substance “H-Y[Aib]EGTFTSDYSI[Aib]LEDQAQ[Aib]AFVEWLIK([εLys-γGlu-γGlu-γGlu-γGlu-γGlu-γGlu-C20 diacid])GGPSSGASLRHYYNWLTRQRY-NH2 [Compound 90, Y-Aib-E-G-T-F-T-S-D-Y-S-I-Aib-L-E-D-Q-A-Q-Aib-A-F-V-E-W-L-I-K(1,3)-GGPSSGASLRHYYNWLTRQRY-NH2.C20DA-gGlu-gGlu-gGlu-gGlu-gGlu-gGlu-eLys(1,2)]”, the EC50 on hGLP1R (setting [1]) was 0.3 nM; on hGIPR (setting [2]), 1.03 nM.

With “H-Y[Aib]EGTFTSDYSI[Aib]LEKQAQ[Aib]AFVEWLIK([Ahx-γGlu-γGlu-γGlu-γGlu-γGlu-C18 diacid])GGPSEGASLRHYYNWLTRQRY-NH2 [Compound 304, Y-Aib-E-G-T-F-T-S-D-Y-S-I-Aib-L-E-K-Q-A-Q-Aib-A-F-V-E-W-L-I-K(1,3)-GGPSEGASLRHYYNWLTRQRY-NH2.C18DA-gGlu-gGlu-gGlu-gGlu-gGlu-AHX(1,2)]”, the figures for the EC50 at hGLP1R (setting [1]), at hGIPR (setting [2]) and on hGIPR (setting [3]) were 0.35 nM, 0.23 nM and 2.35 nM, respectively.

For “H-Y[Aib]EGTFTSDYSI[Aib]LEEQAQ[Aib]AFVEWLIK([εLys-γGlu-γGlu-γGlu-γGlu-γGlu-C20 diacid])GGPSSGASLRHYYNWLTRQRY-NH2 [Compound 181, Y-Aib-E-G-T-F-T-S-D-Y-S-I-Aib-L-E-E-Q-A-Q-Aib-A-F-V-E-W-L-I-K(1,3)-GGPSSGASLRHYYNWLTRQRY-NH2.C20DA-gGlu-gGlu-gGlu-gGlu-gGlu-eLys(1,2)]”, the values for the EC50 at hGLP1R (setting [1]), on hGIPR (setting [2]) and at hGIPR (setting [3]) were 0.14 nM, 0.16 nM and 1.23 nM, respectively.

Regarding “H-Y[Aib]EGTFTSDLSI[Aib]LEKQAQ[Aib]AFVEWLIK([εLys-γGlu-γGlu-γGlu-γGlu-γGlu-γGlu-C20 diacid])GGPSSGASLRHYYNWLTRQRY-NH2 [Compound 172, Y-Aib-E-G-T-F-T-S-D-L-S-I-Aib-L-E-K-Q-A-Q-Aib-A-F-V-E-W-L-I-K(1,3)-GGPSSGASLRHYYNWLTRQRY-NH2.C20DA-gGlu-gGlu-gGlu-gGlu-gGlu-gGlu-eLys(1,2)]”, the EC50 turned out to be 0.07 nM at hGLP1R (hGLP1R 0.5% hP, 0.5% human plasma); 2 nM at hGLP1R (hGLP1R 100% hP, 100% human plasma); 0.21 nM on hGIPR (hGIPR 0.5% hP, 0.5% human plasma); 1.83 nM at hGIPR (hGIPR 100% hP, 100% human plasma).

For “H-Y[Aib]EGTFTSDYSI[Aib]LEKQAQ[Aib]AFVEYLIK([εLys-γGlu-γGlu-γGlu-γGlu-γGlu-γGlu-C20 diacid])GGPSSGASLRHYYNWLTRQRY-NH2 [Compound 135, Y-Aib-E-G-T-F-T-S-D-Y-S-I-Aib-L-E-K-Q-A-Q-Aib-A-F-V-E-Y-L-I-K(1,3)-GGPSSGASLRHYYNWLTRQRY-NH2.C20DA-gGlu-gGlu-gGlu-gGlu-gGlu-gGlu-eLys(1,2)]”, the EC50 is 0.24 nM on hGLP1R (setting [1]), 0.11 nM at hGIPR (setting [2]) and 1.07 nM at hGIPR (setting [3]).

Turning to “I: H-Y[Aib]EGTFTSDYSI[Aib]LEKQAQ[Aib]EFVQWLIKGGPSEGASLRHYYNWLTRQRY-NH2 / II: {C18 diacid}-EEEEEE (amide I:28-II:C) [Compound 179, Y-Aib-E-G-T-F-T-S-D-Y-S-I-Aib-L-E-K-Q-A-Q-Aib-E-F-V-Q-W-L-I-K(1,3)-GGPSEGASLRHYYNWLTRQRY-NH2.C18DA-E-E-E-E-E-E(1,2)]”, the EC50 at hGLP1R (setting [1]) amounted to 0.22 nM; on hGIPR (setting [2]), 0.38 nM.

For “Y[Aib]EGTFTSDYSI[Aib]LEKQAQ[Aib]AFIEWLIK([AEEA-AEEA-γGlu-γGlu-γGlu-γGlu-C18 diacid])GGPSEGASLRHYYNWLTRQRY-NH2 [Compound 258, Y-Aib-E-G-T-F-T-S-D-Y-S-I-Aib-L-E-K-Q-A-Q-Aib-A-F-I-E-W-L-I-K(1,3)-GGPSEGASLRHYYNWLTRQRY-NH2.C18DA-gGlu-gGlu-gGlu-glu-OEG-OEG(1,2)]”, the EC50 was determined as 0.17 nM on hGLP1R (setting [1]), 0.16 nM on hGIPR (setting [2]) and 1.23 nM at hGIPR (setting [3]).
